Results on 73 compounds are retold here after PubChem BioAssay AID1552 (Sanford-Burnham Center for Chemical Genomics, 2009).

The source made the active and inactive calls. The rule behind the calls is not given here.

The target in this test is Ubiquitin-conjugating enzyme E2 N (Homo sapiens) (UniProt P61088). The test is described as follows: NMR detection of UBE2N ligand binding – biophysical, purified protein (AID 1552). The following applies: NMR binding to purified UBE2N.
Ubiquitin-conjugating enzyme E2 N (Homo sapiens), sequence (P61088 whole entry, looked up): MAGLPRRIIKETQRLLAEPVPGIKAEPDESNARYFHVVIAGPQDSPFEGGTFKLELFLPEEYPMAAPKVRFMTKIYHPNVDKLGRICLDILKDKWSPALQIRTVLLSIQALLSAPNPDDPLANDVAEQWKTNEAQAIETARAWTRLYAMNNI
Consider `COc1cc2cc[n+]3cc4c(OC)c(OC)ccc4cc3c2cc1OC`, for which the Kd was > 4 mM (inactive).
On to `CC(C)c1ccc2c(c1O)CC[C@H]1C3=C(CC[C@]21C)C(=O)OC3`, for which the Kd is > 4 mM (inactive).
For the compound `O=C(O)CS(=O)(=O)c1ccccc1`, the Kd is > 4 mM (inactive).
The value for `Cn1c(NCC(=O)O)nc2c1c(=O)[nH]c(=O)n2C` was > 4 mM (inactive); that for `Cc1noc(C)c1C(=O)NCc1ccco1` was > 4 mM (inactive); that for `c1coc(CNc2nc(-c3ccncc3)cs2)c1` was > 4 mM (inactive).
The value for `COc1cccc(-c2csc(NC(C)=O)n2)c1` was > 4 mM (inactive).
For `CC(=O)O[C@H]1C[C@@]2(C)[C@@H](C[C@@H](O)C3[C@]2(C)CC[C@H]2[C@H](C)[C@H](O)CC[C@]32C)/C1=C(/CCC=C(C)C)C(=O)O` (stereo partly drawn), the Kd was > 4 mM (inactive).
Turning to `NC(=O)CCn1ncc2ccccc21`, the Kd was > 4 mM (inactive).
The value for `N#Cc1cnn2c(C(F)(F)F)cc(C(F)(F)F)nc12` was > 4 mM (inactive); that for `NC(=O)c1ccc(N2C(=O)CCC2=O)cc1Cl` was > 4 mM (inactive).
For the compound `Brc1ccc(-c2nc(-c3ccncc3)no2)o1`, the Kd was > 4 mM (inactive).
Consider `CSc1ccc(C2NC(=O)CCC2[N+](=O)[O-])cc1` (stereo not drawn), for which the Kd is > 4 mM (inactive).
As to `Cc1cc(O)c(C)c(O)c1C(=O)O`, the Kd is > 4 mM (inactive).
As to `Cc1n[nH]c(C)c1CN`, the Kd was > 4 mM (inactive).
The value for `Cc1occc1C(=O)Nc1nccs1` was > 4 mM (inactive).
The value for `CSc1nn(-c2ccccc2)c(N)c1C#N` was > 4 mM (inactive); that for `Nc1ccc2sccc2c1` was > 4 mM (inactive); that for `CC(C)C(=O)NC(=S)N1CCOCC1` was > 4 mM (inactive).
Take `O=c1[nH]c(=O)c2[nH]cnc2[nH]1`: the Kd is > 4 mM (inactive).
The value for `Nc1nsc(-c2ccccc2)n1` was > 4 mM (inactive); that for `CC(=O)Nc1ccc(Cl)c(C(N)=O)c1` was > 4 mM (inactive); that for `COc1ccc(-c2c(OC)c3c(OC)c4c(cc3oc2=O)OC(C)(C)C=C4)cc1` was > 4 mM (inactive).
Then `Cc1ncc(CC(=O)O)s1`, with > 4 mM (inactive).
Regarding `CC1(C)C(=O)N(O)C(C)(C)C(=O)N1O`, the Kd is > 4 mM (inactive).
Then `COc1ccc(-c2coc3c(OC)c(OC)cc(OC)c3c2=O)cc1`, with > 4 mM (inactive); and `COC(=O)N1CCN(c2ccc(OC)cc2)CC1`, with > 4 mM (inactive); and `NC(=O)CCn1cnc2ccccc21`, with > 4 mM (inactive).
The value for `Cc1csc(NC(=O)c2cccs2)n1` was > 4 mM (inactive); that for `COc1ccc2ccc(=O)oc2c1` was > 4 mM (inactive); that for `Cc1cc(C(=O)Nc2sc(C)c(C)c2C#N)c(C)o1` was > 4 mM (inactive).
The value for `Cc1n[nH]c(=S)n(/N=C/c2ccccc2)c1=O` was > 4 mM (inactive); that for `Cc1nnc2sc(-c3csc4c3CCCC4)nn12` was > 4 mM (inactive).
As to `Nc1ccccc1-n1cccn1`, the Kd was > 4 mM (inactive).
The value for `O=C(O)c1ccc2c(c1)OCCCO2` was > 4 mM (inactive); that for `CC1(C)C(=O)C=C[C@@]2(C)C1C=C[C@]1(C)C2CC[C@@]2(C)[C@H](c3ccoc3)OC(=O)C3OC321` (stereo partly drawn) was > 4 mM (inactive); that for `Cc1cc(C(=O)NCc2cccs2)c(C)o1` was > 4 mM (inactive).
With `CN1C(=O)c2ccc(N3CCCC3)cc2C1=O`, the Kd is > 4 mM (inactive).
Then `NC(=O)C1CCN(c2ccc(Cl)nn2)CC1`, with > 4 mM (inactive); and `CS(=O)(=O)c1ccccc1C(=O)Nc1nccs1`, with > 4 mM (inactive); and `[O-][n+]1onc2c1CCc1c-2nc(-c2ccccc2)n1O`, with > 4 mM (inactive).
The value for `CN1CCN(C(=O)c2cc(-c3ccccc3)on2)CC1` was > 4 mM (inactive); that for `CSc1nnc(CN2CCSCC2)n1C` was > 4 mM (inactive); that for `COc1ccc(-c2c(O)c3c(OC)c4c(cc3oc2=O)OC(C)(C)CC4)cc1` was > 4 mM (inactive).
Then `CSc1nnc2[nH]c(=O)cc(N)n12`, with > 4 mM (inactive); and `Cc1c(C(=O)N2CCOCC2)oc2c1C(=O)CC(C)(C)C2`, with > 4 mM (inactive); and `O=C(O)CCc1c[nH]c2ccccc12`, with > 4 mM (inactive).
Regarding `Cc1cc(C)n(S(=O)(=O)c2ccc(C)c(C)c2C)n1`, the Kd is > 4 mM (inactive).
In the case of `CS(=O)(=O)Nc1ccc(C(=O)N2CCCCC2)cc1`, the Kd was > 4 mM (inactive).
In the case of `O=C(Nc1ccccc1)Nc1ccccn1`, the Kd is > 4 mM (inactive).
As to `CC(=O)Nc1cccc(-c2n[nH]c(=S)n2C)c1`, the Kd was > 4 mM (inactive).
On to `CCOc1ccccc1C(=O)NC1=NCCS1`, for which the Kd was > 4 mM (inactive).
The value for `CCN1CCC(NC2CCC(O)CC2)CC1` (stereo not drawn) was > 4 mM (inactive); that for `Nc1nc(N)nc(N2C(=O)c3ccccc3C2=O)n1` was > 4 mM (inactive); that for `COC(=O)[C@@H]1C(O)CC[C@H]2CN3CCc4c([nH]c5ccccc45)[C@@H]3C[C@@H]21` (stereo partly drawn) was > 4 mM (inactive).
`CNC(=O)Nc1ccc(C(=O)NC)cc1`: the Kd is > 4 mM (inactive).
Then `O=C(Nc1cccnc1)c1c(F)c(F)c(F)c(F)c1F`, with > 4 mM (inactive); and `O=C(Cn1cnc2ccccc2c1=O)N1CCOCC1`, with > 4 mM (inactive).
Then `Cc1nnc(C)n1/N=C/c1cccs1`, with > 4 mM (inactive); and `NCCc1cnc[nH]1`, with > 4 mM (inactive); and `Cc1cc(C(=O)Nc2nnc(C(F)(F)F)s2)no1`, with > 4 mM (inactive).
The value for `c1ccc(Cc2nnc3sc(-c4ccncc4)nn23)cc1` was > 4 mM (inactive); that for `O=c1[nH]c2sc3c(c2c2nncn12)CCCC3` was > 4 mM (inactive).
As to `O=c1[nH]c(CN2CCN(CCO)CC2)nc2ccccc12`, the Kd was > 4 mM (inactive).
Then `CC(=O)Oc1c2c(c3c(c1CC=C(C)C)O[C@]14C(=C[C@@H]5CC1C(C)(C)OC4(C/C=C(\C)C(=O)O)C5=O)C3=O)OC(C)(CCC=C(C)C)C=C2` (stereo partly drawn), with > 4 mM (inactive); and `OCc1cccc2c1OCO2`, with > 4 mM (inactive); and `CC(CO)NC(=O)C1C=C2c3cccc4[nH]cc(c34)C[C@H]2N(C)C1` (stereo partly drawn), with > 4 mM (inactive).
Then `Cc1cc(C(=O)N2CCN(S(C)(=O)=O)CC2)cs1`, with > 4 mM (inactive).
Then `O=C(O[C@@H]1Cc2c(O)cc(O)cc2O[C@@H]1c1cc(O)c(O)c(O)c1-c1c([C@H]2Oc3cc(O)cc(O)c3C[C@H]2O)cc(O)c(O)c1O)c1cc(O)c(O)c(O)c1`, with > 4 mM (inactive); and `Cc1nn(C)c(N2CCOCC2)c1N`, with > 4 mM (inactive); and `CCOCC(=O)N1CCc2ccccc21`, with > 4 mM (inactive).
Regarding `Oc1ccc(-n2ccnc2)cc1`, the Kd was > 4 mM (inactive).
Then `C=CCc1ccc2c(c1)OCO2`, with > 4 mM (inactive).

By Kd is commonly meant the constant that tells how readily two partners part at equilibrium.
